Measurements published in ChEMBL document CHEMBL5291721, “A preclinical secondary pharmacology resource illuminates target-adverse drug reaction associations of marketed drugs” (Nat Commun, 2023).

Columns and labels:
[1] = target: Gamma-aminobutyric acid receptor subunit alpha-1/alpha-2/beta-2/gamma-2 (Homo sapiens, UniProt P14867+P18507+P47869+P47870); format: functional, cell-based
[2] = target: 5-hydroxytryptamine receptor 2B (Homo sapiens, UniProt P41595)
[3] = target: T1, Corticotropin-releasing factor receptor 1 (Homo sapiens, UniProt P34998)
T1 sequence (P34998 whole entry): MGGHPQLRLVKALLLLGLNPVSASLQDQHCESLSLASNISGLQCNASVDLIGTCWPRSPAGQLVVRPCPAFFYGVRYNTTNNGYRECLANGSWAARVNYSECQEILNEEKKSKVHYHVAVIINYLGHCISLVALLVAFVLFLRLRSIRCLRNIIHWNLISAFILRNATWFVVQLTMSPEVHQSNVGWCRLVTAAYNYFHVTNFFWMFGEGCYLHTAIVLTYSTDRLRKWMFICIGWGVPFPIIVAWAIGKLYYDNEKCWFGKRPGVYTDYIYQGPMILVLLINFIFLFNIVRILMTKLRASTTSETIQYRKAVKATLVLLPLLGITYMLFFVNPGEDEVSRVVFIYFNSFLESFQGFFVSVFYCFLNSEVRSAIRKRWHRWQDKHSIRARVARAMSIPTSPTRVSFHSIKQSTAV

[4] = target: Neurotensin receptor type 1 (Homo sapiens, UniProt P30989)
[5] = target: T2, Gastric inhibitory polypeptide receptor (Homo sapiens, UniProt P48546)
T2 sequence (P48546 whole entry): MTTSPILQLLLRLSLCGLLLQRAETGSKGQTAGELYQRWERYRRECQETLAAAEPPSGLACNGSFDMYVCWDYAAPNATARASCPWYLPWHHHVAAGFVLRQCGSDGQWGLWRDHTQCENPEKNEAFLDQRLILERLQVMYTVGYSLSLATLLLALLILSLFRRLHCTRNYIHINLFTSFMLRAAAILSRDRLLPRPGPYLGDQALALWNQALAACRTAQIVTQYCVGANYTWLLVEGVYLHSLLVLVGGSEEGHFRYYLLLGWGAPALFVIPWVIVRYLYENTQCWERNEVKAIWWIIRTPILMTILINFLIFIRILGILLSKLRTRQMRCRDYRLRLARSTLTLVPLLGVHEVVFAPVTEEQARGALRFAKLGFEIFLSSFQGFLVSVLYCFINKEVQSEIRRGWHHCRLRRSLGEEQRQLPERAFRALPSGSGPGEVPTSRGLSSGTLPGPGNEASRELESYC

[6] = target: Glucagon receptor (Homo sapiens, UniProt P47871)
[7] = target: T3, Androgen receptor (Rattus norvegicus, UniProt P15207)
T3 sequence (P15207 whole entry): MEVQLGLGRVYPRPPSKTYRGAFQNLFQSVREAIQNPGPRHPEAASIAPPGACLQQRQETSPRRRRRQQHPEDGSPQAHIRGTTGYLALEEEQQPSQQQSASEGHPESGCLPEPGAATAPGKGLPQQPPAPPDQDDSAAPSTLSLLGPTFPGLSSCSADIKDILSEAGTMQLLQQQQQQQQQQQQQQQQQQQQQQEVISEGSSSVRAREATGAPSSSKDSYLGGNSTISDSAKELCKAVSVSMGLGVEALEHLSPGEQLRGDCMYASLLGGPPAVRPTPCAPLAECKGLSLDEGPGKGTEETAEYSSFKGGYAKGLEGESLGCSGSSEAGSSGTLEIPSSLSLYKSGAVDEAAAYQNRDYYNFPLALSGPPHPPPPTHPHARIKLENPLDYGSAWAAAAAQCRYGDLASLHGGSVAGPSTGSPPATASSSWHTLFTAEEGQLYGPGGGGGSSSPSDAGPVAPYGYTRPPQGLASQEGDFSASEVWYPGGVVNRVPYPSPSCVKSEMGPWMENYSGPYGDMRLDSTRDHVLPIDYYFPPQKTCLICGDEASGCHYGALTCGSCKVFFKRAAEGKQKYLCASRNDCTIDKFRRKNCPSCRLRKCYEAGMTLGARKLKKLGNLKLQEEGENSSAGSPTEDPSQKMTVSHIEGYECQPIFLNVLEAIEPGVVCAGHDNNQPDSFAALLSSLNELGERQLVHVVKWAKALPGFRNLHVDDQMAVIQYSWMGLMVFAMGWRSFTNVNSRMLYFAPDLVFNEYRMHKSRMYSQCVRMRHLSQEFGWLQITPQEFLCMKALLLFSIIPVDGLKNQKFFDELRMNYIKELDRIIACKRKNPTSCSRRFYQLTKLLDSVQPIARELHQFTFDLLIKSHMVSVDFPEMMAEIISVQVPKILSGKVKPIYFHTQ

[8] = target: Beta-3 adrenergic receptor (Homo sapiens, UniProt P13945)
[9] = target: T4, Alpha-2A adrenergic receptor (Homo sapiens, UniProt P08913)
T4 sequence (P08913 whole entry): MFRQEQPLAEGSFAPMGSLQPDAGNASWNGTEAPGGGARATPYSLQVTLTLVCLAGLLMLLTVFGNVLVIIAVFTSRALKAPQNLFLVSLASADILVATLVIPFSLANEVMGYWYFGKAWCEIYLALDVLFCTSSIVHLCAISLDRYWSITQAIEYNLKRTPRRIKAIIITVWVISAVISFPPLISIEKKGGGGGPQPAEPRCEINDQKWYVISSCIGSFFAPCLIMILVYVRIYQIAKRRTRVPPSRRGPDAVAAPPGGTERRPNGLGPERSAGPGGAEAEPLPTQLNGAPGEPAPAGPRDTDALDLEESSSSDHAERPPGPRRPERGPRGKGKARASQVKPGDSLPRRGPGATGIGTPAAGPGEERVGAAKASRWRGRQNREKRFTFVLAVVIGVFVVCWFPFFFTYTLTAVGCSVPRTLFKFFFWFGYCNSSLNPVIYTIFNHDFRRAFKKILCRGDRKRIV

[10] = target: Voltage-dependent N-type calcium channel subunit alpha-1B (Rattus norvegicus, UniProt Q02294); format: functional
Further: assay procedure not described here.

Chain of 5-hydroxytryptamine receptor 2B (P41595 whole entry): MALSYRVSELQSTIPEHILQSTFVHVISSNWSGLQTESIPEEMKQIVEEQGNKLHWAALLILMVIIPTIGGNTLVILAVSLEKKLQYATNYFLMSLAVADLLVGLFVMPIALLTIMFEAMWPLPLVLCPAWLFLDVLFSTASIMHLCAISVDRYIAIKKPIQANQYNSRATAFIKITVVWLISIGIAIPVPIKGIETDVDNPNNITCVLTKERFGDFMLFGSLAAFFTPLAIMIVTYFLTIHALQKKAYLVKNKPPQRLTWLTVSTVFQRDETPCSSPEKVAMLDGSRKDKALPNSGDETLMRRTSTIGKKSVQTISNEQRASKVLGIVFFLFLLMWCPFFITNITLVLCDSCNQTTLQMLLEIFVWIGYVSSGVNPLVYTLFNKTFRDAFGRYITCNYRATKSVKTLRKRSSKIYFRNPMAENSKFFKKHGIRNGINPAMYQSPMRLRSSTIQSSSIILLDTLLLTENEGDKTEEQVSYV
Chain of Gamma-aminobutyric acid receptor subunit alpha-1/alpha-2/beta-2/gamma-2 (P14867 whole entry): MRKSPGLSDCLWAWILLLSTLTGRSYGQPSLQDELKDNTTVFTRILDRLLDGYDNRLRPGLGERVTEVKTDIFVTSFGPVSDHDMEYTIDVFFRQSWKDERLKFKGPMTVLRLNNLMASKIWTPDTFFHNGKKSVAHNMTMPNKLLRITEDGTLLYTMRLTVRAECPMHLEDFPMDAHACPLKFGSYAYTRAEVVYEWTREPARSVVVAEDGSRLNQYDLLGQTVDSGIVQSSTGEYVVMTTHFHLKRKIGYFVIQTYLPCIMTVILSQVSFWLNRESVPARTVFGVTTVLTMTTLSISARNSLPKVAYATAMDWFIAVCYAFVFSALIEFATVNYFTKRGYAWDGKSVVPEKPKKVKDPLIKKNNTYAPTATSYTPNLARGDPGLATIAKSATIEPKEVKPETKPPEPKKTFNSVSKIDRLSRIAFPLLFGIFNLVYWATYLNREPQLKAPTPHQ
Chain of Gamma-aminobutyric acid receptor subunit alpha-1/alpha-2/beta-2/gamma-2 (P47870 whole entry): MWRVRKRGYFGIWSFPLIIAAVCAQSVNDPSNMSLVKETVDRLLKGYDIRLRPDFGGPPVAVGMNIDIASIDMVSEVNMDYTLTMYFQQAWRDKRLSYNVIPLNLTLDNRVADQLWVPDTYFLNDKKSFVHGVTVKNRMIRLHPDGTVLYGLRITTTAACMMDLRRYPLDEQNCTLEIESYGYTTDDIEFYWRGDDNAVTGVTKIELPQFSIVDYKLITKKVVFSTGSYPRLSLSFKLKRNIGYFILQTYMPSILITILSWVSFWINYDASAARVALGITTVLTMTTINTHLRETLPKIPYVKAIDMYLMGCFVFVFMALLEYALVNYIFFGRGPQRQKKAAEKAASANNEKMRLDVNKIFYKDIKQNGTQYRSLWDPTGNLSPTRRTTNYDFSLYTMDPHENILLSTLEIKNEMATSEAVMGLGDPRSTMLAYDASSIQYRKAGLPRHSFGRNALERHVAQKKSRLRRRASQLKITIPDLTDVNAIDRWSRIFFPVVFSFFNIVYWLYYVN
Chain of Gamma-aminobutyric acid receptor subunit alpha-1/alpha-2/beta-2/gamma-2 (P18507 whole entry): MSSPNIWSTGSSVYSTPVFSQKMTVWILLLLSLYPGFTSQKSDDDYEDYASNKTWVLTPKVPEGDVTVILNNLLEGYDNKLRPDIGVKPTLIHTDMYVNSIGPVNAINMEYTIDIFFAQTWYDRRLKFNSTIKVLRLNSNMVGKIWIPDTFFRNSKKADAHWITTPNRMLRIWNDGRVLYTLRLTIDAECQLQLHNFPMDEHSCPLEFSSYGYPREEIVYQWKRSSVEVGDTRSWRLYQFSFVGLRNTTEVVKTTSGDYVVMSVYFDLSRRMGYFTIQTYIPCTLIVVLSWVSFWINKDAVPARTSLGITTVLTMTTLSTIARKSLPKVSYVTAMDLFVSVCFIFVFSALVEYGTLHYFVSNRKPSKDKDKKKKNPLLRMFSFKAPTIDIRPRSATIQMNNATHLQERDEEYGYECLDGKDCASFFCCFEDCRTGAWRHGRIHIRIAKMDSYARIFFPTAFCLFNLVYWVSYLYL
Chain of Gamma-aminobutyric acid receptor subunit alpha-1/alpha-2/beta-2/gamma-2 (P47869 whole entry): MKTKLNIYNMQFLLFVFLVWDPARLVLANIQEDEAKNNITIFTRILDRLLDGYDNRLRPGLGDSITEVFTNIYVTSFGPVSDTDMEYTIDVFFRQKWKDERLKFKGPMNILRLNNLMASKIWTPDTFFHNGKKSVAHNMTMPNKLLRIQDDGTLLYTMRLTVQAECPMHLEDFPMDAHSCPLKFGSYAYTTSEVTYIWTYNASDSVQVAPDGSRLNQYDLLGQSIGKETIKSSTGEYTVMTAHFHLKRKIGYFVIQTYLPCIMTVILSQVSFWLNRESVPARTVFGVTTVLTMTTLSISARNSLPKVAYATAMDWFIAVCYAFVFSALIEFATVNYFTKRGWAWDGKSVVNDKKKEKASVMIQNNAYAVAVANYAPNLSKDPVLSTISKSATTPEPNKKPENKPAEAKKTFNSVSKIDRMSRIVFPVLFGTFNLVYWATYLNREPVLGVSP
Chain of Beta-3 adrenergic receptor (P13945 whole entry): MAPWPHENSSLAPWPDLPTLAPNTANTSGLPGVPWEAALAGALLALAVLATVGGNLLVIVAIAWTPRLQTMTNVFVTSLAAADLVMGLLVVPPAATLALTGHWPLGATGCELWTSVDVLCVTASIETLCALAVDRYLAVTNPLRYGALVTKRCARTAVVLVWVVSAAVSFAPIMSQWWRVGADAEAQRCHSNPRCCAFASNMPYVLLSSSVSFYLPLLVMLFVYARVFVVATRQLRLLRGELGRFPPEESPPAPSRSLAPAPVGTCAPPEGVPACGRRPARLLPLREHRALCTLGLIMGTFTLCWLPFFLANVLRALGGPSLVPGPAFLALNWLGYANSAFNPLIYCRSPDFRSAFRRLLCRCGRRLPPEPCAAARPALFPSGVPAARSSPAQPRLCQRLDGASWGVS
Chain of Glucagon receptor (P47871 whole entry): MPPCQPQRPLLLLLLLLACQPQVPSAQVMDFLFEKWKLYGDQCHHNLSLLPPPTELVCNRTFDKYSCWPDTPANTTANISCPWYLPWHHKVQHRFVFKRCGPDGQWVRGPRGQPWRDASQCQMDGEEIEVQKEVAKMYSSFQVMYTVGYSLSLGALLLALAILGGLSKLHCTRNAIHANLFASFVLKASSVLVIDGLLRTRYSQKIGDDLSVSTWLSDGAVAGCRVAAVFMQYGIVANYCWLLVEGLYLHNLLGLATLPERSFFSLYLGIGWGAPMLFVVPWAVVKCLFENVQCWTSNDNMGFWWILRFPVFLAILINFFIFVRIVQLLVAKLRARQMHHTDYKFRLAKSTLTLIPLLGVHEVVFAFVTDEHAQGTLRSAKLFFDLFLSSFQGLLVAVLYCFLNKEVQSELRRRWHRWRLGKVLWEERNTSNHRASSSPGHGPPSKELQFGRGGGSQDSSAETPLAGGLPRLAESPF
Chain of Neurotensin receptor type 1 (P30989 whole entry): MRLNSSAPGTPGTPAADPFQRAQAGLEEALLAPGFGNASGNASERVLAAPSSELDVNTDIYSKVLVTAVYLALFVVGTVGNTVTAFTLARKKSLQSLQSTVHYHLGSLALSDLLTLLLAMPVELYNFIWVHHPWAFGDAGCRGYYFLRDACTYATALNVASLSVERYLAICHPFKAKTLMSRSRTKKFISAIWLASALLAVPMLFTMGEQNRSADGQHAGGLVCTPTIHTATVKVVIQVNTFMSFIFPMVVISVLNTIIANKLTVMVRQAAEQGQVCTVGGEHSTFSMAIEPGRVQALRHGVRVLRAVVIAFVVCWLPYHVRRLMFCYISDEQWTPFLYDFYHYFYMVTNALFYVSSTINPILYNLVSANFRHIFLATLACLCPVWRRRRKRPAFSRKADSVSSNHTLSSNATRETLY

| Compound | AC50 [1] [µM] | AC50 [2] [µM] | AC50 [3] [µM] | AC50 [4] [µM] | AC50 [5] [µM] | AC50 [6] [µM] | AC50 [7] [µM] | AC50 [8] [µM] | AC50 [9] [µM] | AC50 [10] [µM] |
| --- | --- | --- | --- | --- | --- | --- | --- | --- | --- | --- |
| CCN(CC)CCCN(c1ccccc1)C1Cc2ccccc2C1 [APRINDINE] | > 30 |  |  |  |  |  |  |  |  |  |
| CCCCCCOC(=O)NC(=N)c1ccc(NCc2nc3cc(C(=O)N(CCC(=O)OCC)c4ccccn4)ccc3n2C)cc1 [DABIGATRAN ETEXILATE] | > 30 |  |  |  |  |  |  |  |  |  |
| N=C(N)NC(=O)Cc1c(Cl)cccc1Cl [GUANFACINE] |  | 1.34 |  |  |  |  |  |  |  |  |
| CS(=O)(=O)NC(=O)CCC/C=C\C[C@H]1C(=O)C[C@@H](O)[C@@H]1/C=C/[C@@H](O)COc1ccccc1 [SULPROSTONE] | > 30 |  |  |  |  |  |  |  |  |  |
| CCN(CC)CC(=O)Nc1c(C)cccc1C [LIDOCAINE] |  |  | > 30 | > 30 | > 30 | > 30 |  |  |  |  |
| CN1C(=O)CN=C(c2ccccc2F)c2cc([N+](=O)[O-])ccc21 [FLUNITRAZEPAM] |  | > 10 | > 30 | > 30 | > 30 | > 30 | > 30 | > 30 | > 10 | > 10 |
| CN1CCC(=C2c3ccccc3CC(=O)c3sccc32)CC1 [KETOTIFEN] |  | 0.0328 |  |  |  |  |  |  |  |  |
| CC(=O)OCC1=C(C(=O)O)N2C(=O)[C@@H](NC(=O)Cc3cccs3)[C@H]2SC1 [CEPHALOTHIN] | > 30 |  |  |  |  |  |  |  |  |  |
| Oc1cc(O)c2c(c1)O[C@H](c1ccc(O)c(O)c1)[C@@H](O)C2 [CIANIDANOL] |  | > 10 | > 30 | > 30 | > 30 | > 30 |  | > 30 | > 10 | > 10 |
| OCC(O)COc1ccc(Cl)cc1 (stereo not given) |  |  |  |  |  |  | > 10 |  |  |  |
| O=C(O[C@H]1C[N+]2(CCCOc3ccccc3)CCC1CC2)C(O)(c1cccs1)c1cccs1 [ACLIDINIUM BROMIDE] |  | > 10 | > 30 | > 30 | > 30 | > 30 |  |  | 2.27 | > 10 |
| O=C1CN=C(c2ccccc2Cl)c2cc([N+](=O)[O-])ccc2N1 [CLONAZEPAM] |  | > 10 | > 30 | > 30 | > 30 | > 30 | > 30 | > 30 | > 10 | > 10 |
| CC1NCCOC1c1ccccc1 (stereo not given) [PHENMETRAZINE] |  |  | > 30 | > 30 | > 30 | > 30 |  | > 30 |  | > 10 |
| Cc1cnc(Nc2ccc(OCCN3CCCC3)cc2)nc1Nc1cccc(S(=O)(=O)NC(C)(C)C)c1 [FEDRATINIB] |  |  |  |  |  |  | > 30 |  |  |  |
| CC(C)(N)Cc1ccccc1 [PHENTERMINE] |  |  | > 30 | > 30 | > 30 | > 30 | > 30 | > 30 |  | > 10 |
| OCCN(CCO)c1nc(N2CCCCC2)c2nc(N(CCO)CCO)nc(N3CCCCC3)c2n1 [DIPYRIDAMOLE] |  | > 30 |  | > 30 |  |  | > 30 | > 30 |  |  |
| Cc1nnc2n1-c1ccc(Cl)cc1C(c1ccccc1)=NC2 [ALPRAZOLAM] |  | > 10 | > 30 | > 30 | > 30 | > 30 |  | > 30 | > 10 | > 10 |
